# Publication PMC6930524, “A Prospective Repurposing of Dantrolene as a Multitarget Agent for Alzheimer’s Disease” (Molecules, 2019)
# How the values were obtained:
# [1] = DPPH radical scavenging assay; type: physicochemical; conditions: compound 50 μM, DPPH 100 μM
# Description: Starting from these evidences, we tested DAN in two in vitro models of radical scavenging activity, i.e., the 1,1-diphenyl-2-picryl-hydrazyl (DPPH) and 2,2′-azinobis-(3-ethylbenzothiazoline-6-sulfonic acid) (ABTS) free radical production. Both generate stable nitrogen radicals showing high absorption in visible spectrum, thus allowing easy and straightforward spectrophotometric measures. […] It can be assumed that the antioxidant activity of DAN is independent from its radical scavenging properties.
# Already published protocols for DPPH and […] radical scavenging were used. The scavenging of the radical DPPH^·, or the monocation radical ABTS^·+, were determined by measuring the loss of absorbance at 515 or 755 nm, respectively. Samples were prepared in clear polystyrene flat-bottomed 96-well microplates. […] A preliminary absorbance reading at 755 nm allowed to determine the actual ABTS^·+ concentration (normally 60–70 μM; extinction coefficient ε = 12,000) and set the final concentration of inhibitors to 0.2[ABTS^·+]. 215 μL of ABTS^·+ solution were mixed with 35 μL of stock solution of inhibitors and the decrease in absorbance was monitored. Antioxidant activity was determined from Equation (2) as the percentage of radical production of inhibitor containing samples, compared with control: % radical production = 100 × ABSsample/ABScontrol(2)
# [2] = tested on: CAC mutants C136S, C155S, C136/155S, C-lessV; experiment: Transport activity of cysteine-modified CAC mutants in proteoliposomes; type: biochemical, rat; conditions: 10 μM, C-less V compared with WT
# Procedure: The reducing properties of DAN were studied on the recombinant WT CAC with the protein at different states of oxidation. Figure 8B highlights that when the carrier was incubated during the transport activity with 1 mM dithioerythritol (DTE), 10 µM DAN was able to reduce a major aliquot of oxidized protein (70% recovery of activity compared to the control). […] To identify the cysteines responsible for the activation of the CAC carrier, the proteoliposomes of the WT protein and the mutants C136S, C155S, C136/155S, and C-lessV (C23V/C58V/C89S/C136V/C155V/C283S) were incubated with 10 μM DAN. […] Further evidence of the reducing action of DAN on CAC was obtained by oxidation of the reconstituted WT protein under controlled conditions, i.e., in the presence or absence of hydrogen peroxide and its subsequent degradation by the enzyme catalase. […]
# Before starting the transport activity, proteoliposomes were passed through a Sephadex G-75 column (0.7 cm diameter; 15 cm height; Pharmacia, Milan, Italy) to remove the external substrate. […] Finally, the external substrate was removed by chromatography on Sephadex G-75 columns (0.7 cm diameter; 10 cm height) and intraliposomal radioactivity was measured by a liquid scintillation counter (Perkin Elmer, Milan, Italy).
# [3] = parameters: method as in PMID 11735355; conditions: cited from earlier work
# [4] = cited from earlier work
smiles,measurement,setting,value
O=C1CN(/N=C/c2ccc(-c3ccc([N+](=O)[O-])cc3)o2)C(O)=N1 [Dantrolene],DPPH radical scavenging activity,[1],no activity
same,increase in transport activity on cysteine mutants,[2],significantly lost
same,"antioxidant potency, inhibition of Fe2+/thiocyanate peroxidation of linoleic acid",[3],high antioxidant potency
same,concentration found in the cytosolic compartment in vivo,[4],10 µM
